{"source": "patent US20090074740A1", "about": "“Use of haptoglobin genotyping in diagnosis and treatment of defective reverse cholesterol transport (RCT)” (priority 2007, published 2009)", "key": {"[1]": {"details": "per 1 mg, National Formulary; cited from earlier work"}, "[2]": {"test_system": "J774 macrophages", "assay": "Cholesterol efflux from J774 macrophages elicited by serum from Hp 2-2 DM mice treated with vitamin E", "format": "in vivo", "details": "40 mg/kg/day beginning three weeks after induction of DM, serum on J774 cells", "from_the_text": "(§1) Hp transgenic mice and veneration of DM. All protocols were approved by the Animal Care and Use Committee of the Technion. […]. The characterization and generation of Hp 1 and Hp 2 mice in a C57B1/6 genetic background has previously been described in detail. Briefly, the murine Hp 1 allele is the wild type murine Hp allele. The Hp 2 allele exists only in man and a murine Hp 2 allele was genetically engineered in vitro and its insertion targeted at the Hp locus by homologous recombination. […] Diabetes was generated in these mice at 8 weeks of age using a low dose streptozotocin protocol (NIH Funded Consortium on Animal Models of Diabetic Complications protocol available on the consortium web site www.amdcc.org) and confirmed by measuring plasma glucose. Mice were diabetic for at least 1 month prior to analysis.\n(§2) Vitamin E (racemic, alpha-tocopherol acetate, Merck) was administered to a subset of the Hp 2-2 DM mice at a dose of 40 mg/kg/day beginning three weeks after the induction of DM."}, "[3]": {"assay": "Glucose control and lipid profile in Hp 2-2 DM mice given vitamin E", "format": "in vivo", "details": "40 mg/kg/day", "from_the_text": "as §1, §2"}, "[4]": {"assay": "ICARE study: vitamin E versus placebo in Hp 2-2 Type II DM individuals (MI, stroke, CVD death)", "format": "in vivo, human", "from_the_text": "The study protocol of the ICARE study involves the following: participants were drawn from 47 primary health clinics of the Clalit Health Services in the northern sector of Israel. Patients were eligible for the study if they had Type II DM and were 55 years of age or older. […] These Hp 2-2 individuals were randomly assigned to treatment with either vitamin E or placebo. The major study outcomes (MI, stroke, CVD death) were identified prospectively in this population over an 18 month period. A preplanned secondary analysis of ICARE was to assess the ability of vitamin E therapy to influence outcomes in those ICARE participants who were also taking statins. Statin use as prospectively defined in ICARE was based on the use of statins by the participant in at least eight of the twelve months preceding enrollment of the participant in the study. The decision to use statins for a particular participant was under the discretion of the patient's primary care physician and was in no way influenced by the patient's participation in the ICARE study.\nRobust clinical data has shown that individuals homozygous for the Hp 2 allele (Hp 2-2 genotype), 40% of DM individuals, have an up to 500% increased risk of CVD (21-24). A vast amount of basic science, animal and epidemiological data has provided the logic for targeting vitamin E administration specifically to DM individuals with the Hp 2-2 genotype. In the ICARE study (Israel CArdiovascular events Reduction with vitamin E (ClinicalTrials.gov# NCT00220831)) a prospective randomized placebo controlled trial of vitamin E therapy in DM individuals with the Hp 2-2 genotype, is was shown that vitamin E therapy results in a 50% reduction in CVD events. However, only about half of the Hp 2-2 DM participants in ICARE received statin therapy."}, "[5]": {"test_system": "J774 macrophage cells", "assay": "HDL-mediated cholesterol efflux from J774 cells incubated with purified HDL, native or glycated Hb and Hp", "format": "cell-based, murine", "details": "efflux with purified HDL taken as 100%; 0.8 umol/L; 3-hour incubation", "protocol": "Cell Culture. J774 A.1 murine macrophage cells were purchased from the American Type Culture Collection (Manassas, Va.) and grown in DMEM supplemented with 5% FBS.\nCholesterol Efflux From Macrophages. Murine J774 cells (1×10^6/mL) were plated in 24-well plates for 48 hours, then washed and incubated in DMEM without serum containing ^3H-cholesterol (2 uCi/mL) for 1 hour. Cells were washed to remove unincorporated label and then incubated in 1 mL of DMEM supplemented with: (1) nothing (negative control); (2) purified HDL (100 ug/mL protein) (positive control); or (3) 30 uL of serum from individuals with or without DM with the different Hp genotypes. In studies using purified Hp and Hb rather than serum, the cells were incubated with purified HDL ([…] protein) with different combinations of native Hb, glycated Hb, Hp1-1, and Hp2-2 (all at 0.8 umol/L).\nAfter a 3-hour incubation at 37° C. to permit efflux of ^3H-cholesterol from the cells into the medium, 500 uL of the medium was collected, the cells washed with PBS, and 0.1 N NaOH added to the cells. Cellular and medium ^3H-cholesterol were determined by liquid scintillation counting (LSC). The percentage of cholesterol efflux was calculated as the ratio of total counts per minute in the medium divided by the total counts per minute in the medium and in the cells. HDL-mediated cholesterol efflux (resulting from purified HDL or HDL found in the serum) was calculated after subtraction of the nonspecific efflux obtained in cells incubated in the absence of purified HDL or serum. Results reported for efflux elicited by serum samples are normalized for the serum HDL concentration derived as (measured efflux)(measured HDL in mg/dL)/50."}, "[6]": {"test_system": "HDL associated lipids", "assay": "Measurement of HDL-associated lipid peroxides", "format": "biochemical, human", "details": "Hb 1 umol/L, 100 ug HDL", "protocol": "Measurement of HDL-Associated Lipid Peroxides. Glycosylated or nonglycosylated Hb (1 umol/L) was incubated with 100 ug of HDL and 20 umol/L ascorbic acid in PBS with or without Hp1-1 or Hp2-2 (equimolar to Hb) for 3 hours at 37° C. Lipid peroxides were measured as previously described."}}, "note": "Values joined by “and” are separate entries in the source; they are usually repeats but may differ in a detail not shown here. Equal values may be shown once. “Also recorded” adds a separate entry of the source.", "data": [{"molecule": "Cc1c(C)c2c(c(C)c1O)CCC(C)(CCCC(C)CCCC(C)CCCC(C)C)O2", "note": "(racemic) [all-rac-.alpha-tocopherol]", "values": [{"measurement": "specific activity of 1 mg", "setting": "[1]", "value": 1.10, "unit": "IU"}]}, {"molecule": "CC(=O)Oc1c(C)c(C)c2c(c1C)CCC(C)(CCCC(C)CCCC(C)CCCC(C)C)O2", "note": "(racemic) [all-rac-α-tocopherol acetate]", "values": [{"measurement": "specific activity of 1 mg", "setting": "[1]", "value": 1.00, "unit": "IU"}]}, {"molecule": "CC(=O)Oc1c(C)c(C)c2c(c1C)CCC(C)(CCC[C@H](C)CCC[C@H](C)CCCC(C)C)O2", "note": "(mixture of isomers) [vitamin E, alpha-tocopherol acetate]", "values": [{"measurement": "effect on the impairment in cholesterol efflux produced by DM in Hp 2 mice", "setting": "[2]", "value": "prevented; also recorded: prevent the impairment in efflux"}, {"measurement": "effect on the impairment in cholesterol efflux produced by DM in Hp 2 mice", "setting": "[2]; listed as Vitamin E", "value": "prevent the impairment in efflux"}, {"measurement": "effect on glucose control", "setting": "[3]", "value": "no effect"}, {"measurement": "effect on the lipid profile", "setting": "[3]", "value": "no effect"}, {"measurement": "reduction in CVD events", "setting": "[4]; DM individuals with the Hp 2-2 genotype, ICARE overall", "value": 50, "unit": "%"}, {"measurement": "event rate (MI, stroke, CVD death)", "setting": "[4]; Hp 2-2 DM individuals taking statins in at least eight of the twelve months before enrollment, 18 month period", "value": 1.3, "unit": "%"}, {"measurement": "event rate (MI, stroke, CVD death)", "setting": "[4]; Hp 2-2 DM individuals taking statins in at least one of the twelve months before enrollment", "value": 1.7, "unit": "%"}, {"measurement": "hazard ratio [HR] versus placebo", "setting": "[4]; Hp 2-2 DM individuals taking statins, 95% CI 0.15-0.83", "value": 0.31}]}, {"molecule": "CC(=O)Oc1c(C)c(C)c2c(c1C)CC[C@@](C)(CCC[C@H](C)CCC[C@H](C)CCCC(C)C)O2", "note": "[RRR-.alpha-tocopherol acetate]", "values": [{"measurement": "specific activity of 1 mg", "setting": "[1]", "value": 1.36, "unit": "IU"}]}, {"molecule": "Cc1c(C)c2c(c(C)c1O)CC[C@@](C)(CCC[C@H](C)CCC[C@H](C)CCCC(C)C)O2", "note": "[RRR-.alpha-tocopherol]", "values": [{"measurement": "specific activity of 1 mg", "setting": "[1]", "value": 1.49, "unit": "IU"}]}, {"molecule": "glycated Hb: Human hemoglobin glycated in vitro using glycolaldehyde", "values": [{"measurement": "reduction in HDL-mediated cholesterol efflux", "setting": "[5]", "value": "35% and 34±3%"}, {"measurement": "increase in HDL-associated lipid peroxides", "setting": "[6]; 20 umol/L ascorbic acid, 3 hours at 37 C, mean of 2 independent experiments", "value": "142.3 nmol of lipid peroxide per milligram of HDL"}]}, {"molecule": "native Hb: Native hemoglobin isolated from fresh human blood", "values": [{"measurement": "effect on HDL-mediated efflux of 3H-cholesterol", "setting": "[5]", "value": "did not cause any reduction; also recorded: no effect"}, {"measurement": "increase in HDL-associated lipid peroxides", "setting": "[6]; 3 hours", "value": "no increase"}]}, {"molecule": "Haptoglobin: Highly conserved plasma glycoprotein, the major protein that binds free hemoglobin (protein, UniProt P00738 19-406, looked up) Haptoglobin: VDSGNDVTDIADDGCPKPPEIAHGYVEHSVRYQCKNYYKLRTEGDGVYTLNDKKQWINKAVGDKLPECEADDGCPKPPEIAHGYVEHSVRYQCKNYYKLRTEGDGVYTLNNEKQWINKAVGDKLPECEAVCGKPKNPANPVQRILGGHLDAKGSFPWQAKMVSHHNLTTGATLINEQWLLTTAKNLFLNHSENATAKDIAPTLTLYVGKKQLVEIEKVVLHPNYSQVDIGLIKLKQKVSVNERVMPICLPSKDYAEVGRVGYVSGWGRNANFKFTDHLKYVMLPVADQDQCIRHYEGSTVPEKKTPKSPVGVQPILNEHTFCAGMSKYQEDTCYGDAGSAFAVHDLEEDTWYATGILSFDKSCAVAEYGVYVKVTSIQDWVQKTIAEN", "values": [{"measurement": "effect on HDL-mediated efflux of 3H-cholesterol", "setting": "[5]", "value": "no effect"}]}]}
